The values below come from ChEMBL document CHEMBL1201862, “PubChem BioAssay data set” (2004).

The nature of assay [1]: Concentration-dependent survival of SW480 colon cancer line, luminescence detection with CellTiter-Glo, half-maximal inhibitory concentration (AID 1117338). It is filed as functional.
Assay [2] in a line: RKO cell viability reduction, dose response, CellTiter-Glo luminescence (AID 1117322). Format: functional. On the technique in general: ATP-based viability assays read luminescence as a measure of living cells.
The nature of assay [3]: cytotoxicity toward HCT116 cells – cell-based, CellTiter-Glo luminescence, IC50, dose response (AID 1117332). Format: functional. Particulars: HCT-116.
Assay [4] is described as follows: SNU-C1 cell viability reduction, dose response, CellTiter-Glo luminescence (AID 1117323). It is filed as functional, cell-based.
Assay [5] in a line: cytotoxicity toward Colo320 cells – cell-based, CellTiter-Glo luminescence, IC50, dose response (AID 1117334). It is filed as functional. Particulars: COLO 320.
The nature of assay [6]: cytotoxicity toward HT-29 cells – cell-based, CellTiter-Glo luminescence, IC50, dose response (AID 1117330). It is filed as functional.
Assay [7] can be described thus: CellTiter-Glo luminescent dose response of DLD-1 viability loss (AID 1117352). It is filed as functional.
Assay [8] in a line: HCT116 cell viability decrease, GSK3B pretreatment – CellTiter-Glo, IC50, dose response (AID 1117339). Format: functional. Particulars: HCT-116.
Assay [9] is described as follows: P. falciparum 3D7-ScDHODH growth inhibitors, dose response, SYBR Green, dry powder samples (AID 1159570).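 Further: parasite growth measured after 72 hours of compound exposure.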 It is filed as functional, cell-based.
The nature of assay [10]: HepG2 cell cytotoxicity, dose response, cytotoxicity control, plate reader, dry powder samples (AID 1159569).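 Further: inhibitor potency with signal falling toward the positive control level.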 It is filed as functional, cell-based.
The nature of assay [11]: P. falciparum Dd2 growth inhibitors, dose response, SYBR Green, cherry-picked samples (AID 1159567). It is filed as functional, cell-based.
A short description of assay [12]: P. falciparum Dd2 growth inhibitors, dose response, SYBR Green, dry powder samples (AID 1159566).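 Further: potency for growth inhibition with lower SYBR green DNA signal.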 Format: functional, cell-based.
Assay [13] can be described thus: Plasmodium falciparum Dd2 Sybr green parasite growth Measured in Cell-Based and Microorganism Combination System Using Plate Reader - 2153-01_Inhibitor_Dose_DryPowder_Activity_Set10. Format: functional.
Assay [14] in a line: P. falciparum ATP4 D1247Y mutant growth inhibitors, dose response, NITD609-resistant line, SYBR Green, dry powder (AID 1159571).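 Further: parasites synchronized at ring stage by sorbitol before testing.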 Format: functional, cell-based.
The nature of assay [15]: Luminescence Cell-Based Dose Response HTS to Identify Activators of Luciferase Translation or Activity in H4 […] Cells. [Related pubchem assays: 1829 (Project Summary), 1814 (Primary HTS)]. Format: functional.
A further assay relates to H4. Description: Luminescence Cell-Based Dose Response HTS to Identify Activators of 5'UTR Stem-Loop Driven Prion Protein mRNA Translation in H4 Neuroglioblastoma Cells. [Related pubchem assays: 1829 (Project Summary), 1814 (Primary HTS)]. It is filed as functional. Particulars: Homo sapiens.
In assay [16] the target is Heat shock protein HSP 90-alpha (Homo sapiens, UniProt P07900). Description: Luminescence-based dose response biochemical high throughput screening assay for inhibitors of the Heat Shock Protein 90 (HSP90). [Related pubchem assays: 1831 (Summary AID.), 1846 (Confirmation screen.), 1789 (Primary screen.)].
The target of assay [17] is Glyceraldehyde-3-phosphate dehydrogenase (Homo sapiens, UniProt P04406).
Chain of Glyceraldehyde-3-phosphate dehydrogenase (P04406 whole entry): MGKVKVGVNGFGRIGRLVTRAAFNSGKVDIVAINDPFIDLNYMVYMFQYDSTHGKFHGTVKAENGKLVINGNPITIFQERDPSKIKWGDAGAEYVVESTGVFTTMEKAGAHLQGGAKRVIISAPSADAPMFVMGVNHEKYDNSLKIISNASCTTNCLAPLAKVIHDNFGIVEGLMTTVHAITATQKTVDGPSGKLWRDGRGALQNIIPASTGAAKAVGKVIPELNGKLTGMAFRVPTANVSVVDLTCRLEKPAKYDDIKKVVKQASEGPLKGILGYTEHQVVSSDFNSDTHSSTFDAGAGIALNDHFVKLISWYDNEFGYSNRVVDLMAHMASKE
Assay [18] addresses T1, Bcl-2-related protein A1 (Mus musculus, UniProt Q07440).
T1 sequence (Q07440 whole entry): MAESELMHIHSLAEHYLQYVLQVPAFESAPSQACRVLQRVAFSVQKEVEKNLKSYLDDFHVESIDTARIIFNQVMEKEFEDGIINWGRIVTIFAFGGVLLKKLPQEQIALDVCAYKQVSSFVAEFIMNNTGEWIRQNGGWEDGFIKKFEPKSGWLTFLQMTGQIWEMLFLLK
Description: Bfl-1 inhibitors blocking BH3 peptide binding, confirmation, biochemical, TR-FRET, mouse Bfl-1 (AID 621).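 Further: TR-FRET binding of GST-Bfl-1 to FITC-labelled Bid peptide via terbium antibody.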

In assay [19] the target is T1, Bcl-2-related protein A1. Kind of assay: Bfl-1 binding inhibitors, SAR follow-up, biochemical, fluorescence polarization (AID 1070). A general note: In fluorescence polarisation assays a small probe gives low polarisation when free and higher when bound to something large.
For assay [20], the system named is Vero. Description: cytotoxicity of synthesized analogs in Vero 76, SAR follow-up, cytotoxicity control for West Nile virus antiviral project, Vero 76 cells (AID 2414). Format: functional. Particulars: Chlorocebus sabaeus.
For assay [21], the system named is Vero. Kind of assay: cytotoxicity of synthesized analogs in Vero cells, SAR follow-up, cytotoxicity control for West Nile virus antiviral project, cell-based, set II (AID 2402). Format: functional. Particulars: Chlorocebus sabaeus.
Assay [22] can be described thus: A Cell Based Assay for the Identification of Probe candidate Compounds with Anti- Venezuelan Equine Encephalitis virus. [Related pubchem assays: 2409, 2419, 1621, 2238, 2405, 2024, 2065, 2402, 2414, 1635, 1650, 2244 ]. It is filed as functional.
The next assay has as its target Genome polyprotein (Hepatitis C virus, UniProt Q2Q167). Kind of assay: HCV core protein dimerization inhibitors, dose response, biochemical, TR-FRET (AID 2159).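 Further: blocks dimerization of HCV core protein measured by TR-FRET between tagged core106 pairs.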 Also noted: species or system Hepacivirus hominis. A general note: Time-resolved FRET reads energy transfer from a long-lived donor to a nearby acceptor.
The test system of assay [23] is HEK293. Kind of assay: NOD1 signaling inhibitors, primary screen, cell-based, luminescence, uHTS (AID 1578). Format: functional. Particulars: Homo sapiens.
Assay [24] in a line: insulin promoter down-regulators in MIN6 cells, imaging, high-content screening, mouse beta cells (AID 1628). Format: functional.
Assay [25] concerns Streptococcus sp. 'group A'. Kind of assay: growth inhibition of control SK(-) GAS strain, dose response, counter-screen for streptokinase expression inhibitor project, luminescence, kanamycin, BacTiterGlo, confirmation (AID 1900). It is filed as functional, organism-based.
In assay [26] the test system is HEK293. Kind of assay: cells. Format: functional, cell-based. Particulars: Homo sapiens.
Assay [27] can be described thus: cytotoxicity in MIN6 insulinoma cells, dose response, cytotoxicity control, cell-based, mouse insulinoma (AID 2122).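 Further: confirmatory high-throughput counterscreen run to flag cytotoxic compounds; mouse MIN-6 beta cells carrying an insulin promoter eGFP reporter.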 It is filed as functional.
The subject of assay [28] is HEK293. Kind of assay: cells. Particulars: Homo sapiens. Format: functional, cell-based. This is another data set of the same source.
Assay [29] relates to HEK293. Kind of assay: NOD2 signaling inhibitors in MDP-stimulated cells, cell-based, uHTS, luminescence (AID 2001). It is filed as functional. Particulars: Homo sapiens.
For another assay, the system named is Streptococcus. Kind of assay: Group A Streptococcus viability loss, dose response, counter-screen for streptokinase expression inhibitor project, luminescence, BacTiterGlo (AID 1915).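 Further: potency for reduction of bacterial viability or growth.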 It is filed as functional, organism-based.

Structures are written as SMILES. Activity calls are given as the source filed them.

Chain of Genome polyprotein (Q2Q167 whole entry): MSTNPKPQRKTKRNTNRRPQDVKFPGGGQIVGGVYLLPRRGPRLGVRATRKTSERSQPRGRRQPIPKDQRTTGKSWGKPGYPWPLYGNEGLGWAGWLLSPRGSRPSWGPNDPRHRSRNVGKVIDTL

The term IC50 denotes the midpoint of a concentration-inhibition curve. On to `CO[C@H]1O[C@@H]2O[C@@]3(C)CC[C@H]4[C@H](C)CC[C@@H]([C@@H]1C)[C@@]24OO3`, for which the IC50 in assay [1], in [2], in [3], in [4], in [5] and in assay [6] was > 20 µM (inactive) each time. In addition, the IC50 in [7] and in assay [8] was > 20 µM (inactive) throughout.
A word on the AC50: it is the midpoint of the concentration-response curve, whichever way the signal moves. For the molecule `COc1ccc(-c2ccccc2[C@H]2[C@@H](C#N)N(C(=O)C3CCCC3)[C@H]2CO)cc1`, the AC50 in assay [9] is 0.368 µM (active); in assay [10] it was 63.3 µM (active); in assay [11], 0.479 µM (active); in [12], 0.346 µM (active); in assay [13], 1.11 µM (active); in assay [14] it was 1.78 µM (active).
In general, EC50 refers to the concentration at which the effect is half-maximal. Take `CCc1ccc(OCc2ccc(C(=O)OC)o2)cc1`: the EC50 was 16.4 µM (active) in [15] and 2.81 µM (active) in the assay with H4. For the same molecule, the IC50 in assay [16] is 0.551 µM (active).
Regarding `O=C1C(Cl)=C(Nc2ccc(F)cc2)C(=O)N1c1ccc(Cl)c(Cl)c1`, the IC50 is > 100 µM (not active) in assay [17], 96.5 µM (active) on Bcl-2-related protein A1 [18] and > 100 µM (not active) on Bcl-2-related protein A1 [19].
The CC50 is the concentration that lowers cell viability or growth by half. For the molecule `COc1cccc2c(=O)n(-c3ccccc3)c(SCC(=O)Nc3ccc4c(c3)CCC4)nc12`, the figures for the CC50 with Vero [20] and in the assay with Vero [21] were < 0.26 µM (active) and > 200 µM (active), respectively. In addition, the IC50 in assay [22] is < 0.26 µM (active).
`CC(C)=CCc1c(O)cc2oc3c(CC=C(C)C)c(O)c(O)c(CC=C(C)C)c3c(=O)c2c1O` [GARCINONE E]: the 50% inhibitory concentration (IC50) is > 49.8 µM (not active) at Genome polyprotein; 2.79 µM (active) in assay [24]; > 20 µM (inactive) in the assay on HEK293 [26]; 3.46 µM (active) in assay [27]; 6.77 µM (active) in the assay on HEK293 [28]; 4.65 µM (inactive) in the assay with HEK293 [29]. Further, the EC50 in the assay with HEK293 [23] is 4.78 µM (active); in [25] it was 0.813 µM (active); in the assay with Streptococcus, 3.02 µM (active).
